Source: the CheMixHub viscosity set
“And” between values parts separate entries of the source, which are not always exact repeats. Identical values can stand only once.

What was measured:
[1] = xn = mol fraction of the nth substance listed; conditions: 101 kPa

CCCCCO
Conditions | viscosity
293.15 K, 100 kPa | 4.057 mPa·s and 4.155 mPa·s and 3.964 mPa·s
293.15 K, 101 kPa | 3.939 mPa·s and 3.99 mPa·s and 4.06 mPa·s
293.15 K, 101.33 kPa | 3.675 mPa·s and 4.109 mPa·s and 4.109 mPa·s
298.15 K, 100 kPa | 3.512 mPa·s and 3.595 mPa·s
298.15 K, 101.3 kPa | 3.302 mPa·s
303.15 K, 101.3 kPa | 3 mPa·s and 2.832 mPa·s
308.15 K, 101.3 kPa | 2.449 mPa·s
313.15 K, 101.3 kPa | 2.3 mPa·s and 2.344 mPa·s
318 K, 101.3 kPa | 2.075 mPa·s
318.15 K, 100 kPa | 2.085 mPa·s
318.15 K, 101.3 kPa | 2.066 mPa·s
323 K, 101.3 kPa | 1.853 mPa·s
323.15 K, 101 kPa | 1.784 mPa·s

CCn1cc[n+](CCOC)c1.O=S(=O)([N-]S(=O)(=O)C(F)(F)F)C(F)(F)F
100 kPa
Conditions | viscosity [mPa·s]
293.15 K | 43.63
298.15 K | 35.49
303.15 K | 29.33
308.15 K | 24.58
313.15 K | 20.86
318.15 K | 18.03

CCCCCCCCCCCCCC[P+](CCCCCC)(CCCCCC)CCCCCC.N#C[N-]C#N
viscosity [mPa·s]
Conditions | 293.15 K | 298.15 K | 303.15 K | 308.15 K | 313.15 K | 318.15 K | 323.15 K
100 kPa | 603 | 442 | 331 | 253 | 196 | 155 | 124
101 kPa | – | 440 | 328 | – | 196 | – | 123

CCCCCCCCCCCCCCCCCCC
Conditions | viscosity [mPa·s]
313.15 K, 101 kPa | 3.49

CCCCCCCC
Conditions | viscosity
293.15 K, 100 kPa | 0.547 mPa·s and 0.512 mPa·s
293.15 K, 101 kPa | 0.556 mPa·s and 0.539 mPa·s
298.15 K, 100 kPa | 0.517 mPa·s and 0.48 mPa·s
298.15 K, 101.32 kPa | 0.507 mPa·s
303.15 K, 100 kPa | 0.452 mPa·s
303.15 K, 101 kPa | 0.482 mPa·s
303.15 K, 101.33 kPa | 0.4865 mPa·s and 0.479 mPa·s (2×) and 0.479 mPa·s
308.15 K, 100 kPa | 0.468 mPa·s and 0.425 mPa·s
308.16 K, 101.3 kPa | 0.4568 mPa·s
313.15 K, 100 kPa | 0.447 mPa·s and 0.4 mPa·s and 0.429 mPa·s
318.15 K, 101.33 kPa | 0.403 mPa·s
318.16 K, 101 kPa | 0.4138 mPa·s
323.15 K, 100 kPa | 0.385 mPa·s
323.15 K, 101 kPa | 0.4049 mPa·s

C1CCC2CCCCC2C1 (stereo not drawn) + OCC1CC1
viscosity [mPa·s], [1]
Conditions | x2 = 0.0988 | x2 = 0.2017 | x2 = 0.2994 | x2 = 0.4008 | x2 = 0.5004 | x2 = 0.6011 | x2 = 0.7007 | x2 = 0.8009 | x2 = 0.8994
293.15 K | 2.377 | 2.408 | 2.471 | 2.554 | 2.676 | 2.846 | 3.024 | 3.244 | 3.581
298.15 K | 2.149 | 2.17 | 2.217 | 2.282 | 2.378 | 2.517 | 2.662 | 2.84 | 3.12
303.15 K | 1.952 | 1.965 | 2.001 | 2.05 | 2.126 | 2.24 | 2.356 | 2.502 | 2.736
308.15 K | 1.781 | 1.787 | 1.814 | 1.85 | 1.91 | 2.003 | 2.097 | 2.215 | 2.411
313.15 K | 1.63 | 1.633 | 1.651 | 1.678 | 1.724 | 1.799 | 1.874 | 1.971 | 2.135
318.15 K | 1.499 | 1.497 | 1.509 | 1.527 | 1.562 | 1.623 | 1.683 | 1.762 | 1.899
323.15 K | 1.382 | 1.358 | 1.383 | 1.396 | 1.421 | 1.47 | 1.518 | 1.581 | 1.697
